Laboratory results published in patent publication US20090191283A1, “TREATMENT OF HEADACHES, NECK PAIN, JOINT PAIN AND INFLAMMATORY-TYPE PAIN” (priority 2008, published 2009).

Key:
Format in all cases: in vivo, human
[1] = tested on: patient with dermatomyositis; assay: Treatment of patient with inflammatory arthropathies: dermatomyositis (case report)
Description: (c) A patient presented with a 10/10 pain level from Dermatomyositis, with the following symptoms: morning stiffness, diffuse polyarticular involvement, malaise, proximal muscle weakness, muscle tenderness
Prior treatment included narcotics, antiinflammatories, corticosteroids, disease-modifying anti-rheumatologic drugs (DMARDs) daily.
Treatment: 0.3 mg/hr nitroglycerin patch applied 2×/day (every 12 hours) to shoulder+3 pills of 250 mg sodium selenite/day (Twin Labs)

[2] = tested on: patients with rheumatoid arthritis; assay: Treatment of patients with inflammatory arthropathies: rheumatoid arthritis (case reports)
Description: Treatment of Patient with Inflammatory Arthropathies […]
(b) A patient presented with Rheumatoid Arthritis with pain levels of 10/10 and the following symptoms: morning stiffness, diffuse polyarticular involvement, malaise, weakness, myalgias
Prior treatment included narcotics, antiinflammatories, corticosteroids daily.
Treatment: 0.1 mg/hr nitroglycerin patch applied 2×/day (every 12 hours) to shoulder+2 pills of 250 mg sodium selenite/day (Twin Labs) […]

[3] = tested on: patient with pseudotumor cerebri and morning headache from sleep apnea; assay: Treatment of patient with pseudotumor cerebri; conditions: for outcome of prior treatment: patient history
Description: (III) Treatment of Patient with Pseudotumor Cerebri
A patient presented with daily pseudotumor cerebri and morning headache from sleep apnea, with an intensity of 10/10. […] Patient was treated with 0.2 mg/hr nitroglycerin patch applied 2×/day to shoulder+3 pills of 250 mg sodium selenite/day (Twin Labs)

[4] = tested on: patient with hemicrania continua; assay: Treatment of patient with hemicrania continua; conditions: patient history
Description: (II) Treatment of Patient with Hemicrania Continua
A patient presented with daily hemicrania continua with an intensity of 8-9/10. […] Patient was treated with 0.2 mg/hr nitroglycerin patch applied 2×/day to shoulder+2 pills of 250 mg sodium selenite/day (Twin Labs).

[5] = tested on: patients with cervicogenic tension headaches; assay: Treatment of patients with cervicogenic tension headaches (case reports)
Description: (II) Treatment of Patients with Cervicogenic Tension Headaches
(a) A patient presented with cervicogenic tension headache with “severe” neck pain with an intensity of 7 or 8/10. The frequency of headaches was everyday and prior treatment included narcotics, NTHEs, Tylenol.
Treatment: 0.4 mg/hr nitroglycerin patch initially applied 1×/day to shoulder+2 pills of 250 mg sodium selenite/day (Twin Labs)
(b) A patient presented with cervicogenic headache with an intensity of 3-4×/wk. Prior treatment included narcotics, Tylenol, NTHEs. Patient was treated with 0.2 mg/hr nitroglycerin patch applied 1×/day applied to shoulder+2 pills of 250 mg sodium selenite/day (Twin Labs)
(c) A patient presented with migraine/cervicogenic headache with a frequency of everyday and an intensity of 7/10. Prior treatment included narcotics, NTHEs, acetaminophen, morphine cream.
Treatment: 0.4 mg/hr nitroglycerin patch applied 1×/day applied to shoulder+2 pills of 250 mg sodium selenite/day (initially) then 0.1 mg/hr nitroglycerin patch applied 1×/day applied to ankle+2 pills of 250 mg sodium selenite/day
(d) A patient presented with a daily cervicogenic tension headache, with an intensity of 10/10. Prior treatment included narcotics, Tylenol, NTHEs.
Treatment: 0.2 mg/hr nitroglycerin patch applied 1×/day to shoulder+3 pills of 250 mg sodium selenite/day (Twin Labs)
(e) A patient presented with a daily cervicogenic tension headache, with an intensity of 10/10. Prior treatment included narcotics, Tylenol, NTHEs, trigger point injections
Treatment: 0.2 mg/hr nitroglycerin patch applied 1×/day to shoulder+2 pills of 250 mg sodium selenite/day (Twin Labs)
(f) A patient presented with a daily cervicogenic tension headache, with an intensity of 7-8/10. Prior treatment included narcotics, Tylenol, NTHEs, trigger point injections
(g) A patient presented with a daily cervicogenic tension headache, with an intensity of 9-10/10. Prior treatment included narcotics, Tylenol, NTHEs, trigger point injections, BoTox which worked well for 3 months but is too expensive
Treatment: 0.2 mg/hr nitroglycerin patch applied 2×/day to shoulder+3 pills of 250 mg sodium selenite/day (Twin Labs).
(h) A patient presented with a daily cervicogenic tension headache with an intensity of 5/10. Prior treatment included narcotics, Tylenol, NTHEs, trigger point injections.
(i) A patient presented with a daily cervicogenic tension headache, with an intensity of 7-8/10. Prior treatment included narcotics, Tylenol, NTHEs, trigger point injections

[6] = tested on: patients with migraine headaches; assay: Treatment of patients with migraine headaches (case reports)
Description: (I) Treatment of Patients with Migraine Headaches […]
(d) A patient presented with an every other day migraine headache with an intensity of 10/10, and the patient stated “The headaches were so bad that I was unable to work or enjoy my life.” Prior treatment included extensive workup by neurologists.
Treatment: 0.6 mg/hr nitroglycerin patch applied 2×/day (every 12 hours) to ankle for 1 week then shoulder+2 pills of 250 mg sodium selenite/day (Twin Labs) […]

[7] = dermatomyositis patient (c), patient history

Q: Which results are given for `C[C@]12C=CC(=O)C=C1CC[C@@H]1[C@@H]2C(=O)C[C@@]2(C)[C@H]1CC[C@]2(O)C(=O)CO` [Prednisone]?
A: initial response to prior treatment [1, 7]: excellent response; side effects of prior treatment [1, 7]: steroid-induced osteoporotic rib and wrist fractures; side effects of prior treatment ([2]; RA patient (b), patient history, daily corticosteroids): Vertebral fractures and osteonecrosis

Q: `CC(=O)Nc1nnc(S(N)(=O)=O)s1` [Diamox] was tested. Which “outcome of prior treatment” value [3] did it give?
A: without much success

Q: How did the “outcome of prior treatment” value [3] turn out when `CC(=O)Nc1ccc(O)cc1` [Tylenol] was run?
A: without much success

Q: What about the “outcome of prior treatment” value [4] of the same molecule?
A: without success

Q: With `CNC[C@H](O)c1cccc(O)c1.Cl` [SUDAFED, phenylephrine hydrochloride] as the molecule, how does the “alleviation of treatment-induced headache by SUDAFED” value (from here on “alleviation”) ([5]; cervicogenic patient (a) on nitroglycerin patch + selenite) read?
A: unalleviated

Q: What about the “alleviation” value ([5]; cervicogenic patient (g) on nitroglycerin patch + selenite) of the same molecule?
A: partially alleviated

Q: What about the “alleviation” value ([5]; cervicogenic patient (i) on nitroglycerin patch + selenite) of the same molecule?
A: totally alleviated

Q: And the “alleviation” value ([5]; cervicogenic patient on nitroglycerin patch + selenite)?
A: alleviated

Q: And the “alleviation” value ([1]; dermatomyositis patient (c) on nitroglycerin patch + selenite)?
A: partially alleviated

Q: What about the “alleviation” value ([6]; migraine patient (a) on nitroglycerin patch + selenite) of the same molecule?
A: partially alleviated

Q: And the “alleviation” value ([6]; migraine patient (b) on nitroglycerin patch + selenite)?
A: partially alleviated

Q: What about the “alleviation” value ([6]; migraine patient (d) on nitroglycerin patch + selenite) of the same molecule?
A: not alleviated

Q: What about the “alleviation” value ([6]; migraine patient (h) on nitroglycerin patch + selenite) of the same molecule?
A: partially alleviated

Q: And the “alleviation” value ([6]; migraine patient on nitroglycerin patch + selenite)?
A: partially alleviated

Q: What about the “alleviation” value ([6]; migraine/tension patient (c) on nitroglycerin patch + selenite) of the same molecule?
A: not alleviated

Q: What about the “alleviation” value ([2]; RA patient (a) on nitroglycerin patch + selenite) of the same molecule?
A: partially alleviated

Q: And the “alleviation” value ([2]; RA patient (b) on nitroglycerin patch + selenite)?
A: partially alleviated

Q: What about the “alleviation” value ([2]; RA patient (d) on nitroglycerin patch + selenite) of the same molecule?
A: partially alleviated

Q: What about the “alleviation” value ([2]; RA patient (e) on nitroglycerin patch + selenite) of the same molecule?
A: partially alleviated

Q: What does the source list for `CC1(C)O[C@@H]2[C@@H](CO[C@@]3(COS(N)(=O)=O)OC(C)(C)O[C@@H]23)O1` [Topamax]?
A: outcome of prior treatment [3]: without much success; outcome of prior treatment ([6]; migraine patient (d), patient history): without success

Q: Which “effect of Imitrex on treatment-induced worsened headaches” value ([3]; patient on nitroglycerin patch + selenite) does the source give for `CNS(=O)(=O)Cc1ccc2[nH]cc(CCN(C)C)c2c1` [Imitrex, sumatriptan] here?
A: improved
